The source of these data is patent publication US20240133870A1, “COMBINED TREATMENT FOR CANCER” (Yeda Research and Development Co. Ltd., priority 2021, published 2024).

The subject of experiment [1] is G361 melanoma cells. The experiment can be described thus: FGFR inhibitor abrogation of factor-mediated resistance (GFP, rScore). It is filed as cell-based, human. The following applies: vemurafenib 2 μM; EMAPII or AIMP1 10 ng/ml; FGFR inhibitor 0.5 μM. As to the method: PLX4720—BRAFi, 2 μM; PD184352—MEKi, 1 μM, EMAPII—50 ng/ml. P-value of the difference between GFP(drug)/GFP(no-treatment) and GFP(drug+EMAPII)/GFP(no-treatment), at day 7, was calculated by two-sided t-test. ** p<0.01, *** p<0.001. Average rScore (+/−SE) was calculated from at least four different experiments. […] A total of 69 experiments are shown. […] The effect of FGF2 (10 ng/ml), EMAPII (10 ng/ml) or AIMP1 (10 ng/ml) on G361 μmelanoma cells treated with vemurafenib (2 μM) was measured with or without the FGFR inhibitor PD17307 (0.5 μM). Data represent an average of 4 to 8 experiments. P-value was calculated by two-sided t-test. *** p<0.001. Error bars represent standard error. […] 18 putative AIMP1 receptors were knocked down by shRNAs (on average 6.8 shRNAs/gene) in the G361 cell line. shRNAs toward luciferase served as a negative control. The effect of AIMP1 (50 ng/ml) on the sensitivity to PLX4720 (2 μM) was tested in all knockdown clones and normalized to no-shRNA control. Results represent the average of 3-8 experiments. Error bars represent standard error. P-values were calculated by two-sided t-test relative to luciferase. * p<0.05, Q-value=0.1. […] The average of 4 experiments is presented. Error bars represent standard error. P-value was calculated by two-sided t-test. *** p<0.001.

The test system of experiment [2] is HCC4006 xenografts. The experiment is described as follows: EVOC viability. It is filed as cell-based, human. The following applies: crizotinib 8 μM added to erlotinib 4 μM. As to the method: Vehicle—DMSO, METi-crizotinib 8 μM, EGFRi—erlotinib 4 μM. Each black dot in a given treatment condition represents a different tumor. P-values were calculated by one-sided t-test. * P<0.05. Error bars represent standard error. […] Viability percentage is presented per treatment. Scale bar represents 50 μm.
Freshly resected tumors were cut to 250 μm slices (Compresstome, VF-300) in cold Williams-E medium (Sigma, W1878). Slices were placed on the surface of titanium meshes which were pre-incubated in DMEM/F-12 (HAM) (01-170-1A, BI) supplemented with 10% FCS, 100 units/ml Penicillin and Streptomycin, 2 μmM Glutamine, […], and 2.5 μg/ml Amphotericin B (sigma, A2942), at 37° C. and 80% oxygen/5% CO2. […]
Immunohistochemistry of EVOC tissues: To assess response therapy, 4 μm FFPE tissue slices were stained with H&E, or with specific antibodies: anti-pERK (Cell Signaling, #4370) followed by HRP conjugated secondary antibody (anti-Rabbit HRP, ZUC032, ZytoChem) and DAB staining (DAB substrate kit, DAB057, ZytoChem). […] All slides were scanned using the Pannoramic SCAN II (3[…]) and analyzed by a pathologist. The percentage of viable cancer cells was morphologically assessed on H&E stained sections by a pathologist as the ratio between viable cancer cell area and total cancer area (viable cancer cells plus necrotic cancer cells).

Experiment [3] concerns human NSCLC tumor biopsy. The experiment is described as follows: EVOC of NSCLC patient biopsies, viability. The format is cell-based. The following applies: treatment-naïve patient; in combination with osimertinib 4 μM. The text has this: Error bars represent standard error. […] Scale bar represents 50 μm. […] Error bars represent standard error. […] Scale bar represents 50 μm.
Scale bar represents 50 μm. […] Scale bar represents 50 μm. […] Scale bar represents 50 μm.

The test system of experiment [4] is SK-MEL-5 BRAF (V600E) melanoma cells. The experiment can be described thus: Co-culture of stroma (WI-38 or HS-5) and cancer cells. The format is cell-based, human. The note with it: co-culture with WI-38; inhibitor added to vemurafenib. As to the method: SK-MEL-5 BRAF (V600E) melanoma cells were co-cultured with the lung-derived stromal cell line WI-38 or with the bone marrow-derived stromal cell line HS-5 with or without vemurafenib (4 μM). […] Vehicle—DMSO, EGFRi—gefitinib (0.1 μM), EGFRi/HER2i—lapatinib (10 nM), METi—crizotinib (0.1 μM), FGFRi—AZD4547 (50 nM), NFkB/TNFRi—CAPE (10 μM), TGFBRi-LY2109761 (0.5 μM), gp130i—SC144 (1 nM). […] Error bars represent standard error. […] Error bars represent standard error. […] Human BRAF (V600E) melanoma cell lines UACC62 or G361 were used to generate xenograft tumor models in various tissues of nude mice. When tumors reached a volume of 500-700 μmm^3, they were resected, sliced, and cultured ex-vivo in the presence of different drug combinations or DMSO control. Following 4 days of drug treatment, slices were fixed, embedded in paraffin blocks, and subjected to immunohistochemistry, using anti-pERK antibody, or to immuno-fluorescence, using anti-pFGFR1 antibody. BRAFi (vemurafenib, 4 μM), FGFRi (AZD4547, 2 μM). Scale bar represents 50 μm.
Four hours later, the melanoma BRAF (V600E) mutated cell line SK-MEL-5 was seeded on top of the stromal cells at a concentration of 1700 cells per well, or seeded without stroma. […] Concentrations of the inhibitors were based on dose curves with SK-MEL-5. For each inhibitor of potential mechanism of resistance, the maximal concentration with minimal effect (toxicity) on cell growth was selected (Cmax).
To compare rScore value of stroma-mediated resistance with or without a given inhibitor, the rScore values of each inhibitor in the presence of stroma, was calculated. As a reduction in rScore may stem from mere toxicity of the inhibitor, rather than the abrogation of the stroma mediated resistance, each inhibitor rScore was penalized by its toxicity.
rScoreinhibitor=rScoreinhibitor+(rScorestroma−rScoreinhibitor)*tOxicitY(Cmax)inhibitor

The subject of experiment [5] is H1975 xenografts. The experiment can be described thus: EVOC viability. It is filed as cell-based, human. The note with it: added to afatinib 3-4 μM.
Procedure: Vehicle—DMSO, FGFRi—AZD4547 2-4 μM, INSRi—linsitinib 2 μM, METi—crizotinib 2-4 μM, EGFRi—afatinib 3-4 μM. Each black dot in a given treatment condition represents a different tumor. P-values were calculated by two-sided t-test. ** P<0.01, * P<0.05. Error bars represent standard error. […] Viability percentage is given per treatment combination. Scale bar represents 50 μm. […] Error bars represent standard error. […] EGFRi—gefitinib 1.6 μM, FGFRi—AZD4547 0.2 μM. The percentage of viable cancer cells was morphologically assessed on H&E stained sections by a pathologist as the ratio between viable cancer cell area and total cancer area (viable cancer cells plus necrotic cancer cells). […] Viability score was calculated based on the entire field of view. […]
Immunohistochemistry of EVOC tissues: To assess response therapy, 4 μm FFPE tissue slices were stained with H&E, or with specific antibodies: anti-pERK (Cell Signaling, #4370) followed by HRP conjugated secondary antibody (anti-Rabbit HRP, ZUC032, ZytoChem) and DAB staining (DAB substrate kit, DAB057, ZytoChem). […] All slides were scanned using the Pannoramic SCAN II (3[sequence]) and analyzed by a pathologist. The percentage of viable cancer cells was morphologically assessed on H&E stained sections by a pathologist as the ratio between viable cancer cell area and total cancer area (viable cancer cells plus necrotic cancer cells).

Consider `CCN(CC)CCCCNc1ncc2cc(-c3cc(OC)cc(OC)c3)c(NC(=O)NC(C)(C)C)nc2n1` [PD17307], for which, in experiment [1], the “abrogation of EMAPII/AIMP1-mediated resistance” value is recorded as “abrogates EMAPII/AIMP1-mediated resistance”.
With `C[C@@H](Oc1cc(-c2cnn(C3CCNCC3)c2)cnc1N)c1c(Cl)ccc(F)c1Cl` [crizotinib], the “innate resistance to EGFRi” value in experiment [2] is “reduced innate resistance to the EGFRi erlotinib”. The cancer cell viability entry in experiment [3] was “synergistic killing effect”. Also, the “abrogation of stroma-mediated resistance to vemurafenib” value in experiment [4] is listed as “abrogated the resistance effect of WI-38”. Also, the cell viability entry in experiment [5] was “significantly reduced cell viability”.
